Assay results published in US20150018411A1, “COMPOUNDS AS PPAR BETA/DELTA INHIBITORS FOR TREATING PPAR BETA/DELTA-MEDIATED DISEASES” (PHILIPPS-UNIVERSITAT MARBURG, priority 2011, published 2015).
pIC50: −log10 of the molar value. “Also recorded” adds a separate entry of the source.

Columns and labels:
[1] = target: T1, GST-PPAR beta/delta LBD (Homo sapiens, UniProt Q03181); experiment: Ligand-induced binding of corepressor peptide SMRT-ID2, TR-FRET; type: biochemical; conditions: concentration dependent
T1 construct: GST-PPAR beta/delta LBD (GST=glutathione S-transferase); purchased Invitrogen, Darmstadt, Germany
T1 sequence (Q03181 211-439 limits assumed): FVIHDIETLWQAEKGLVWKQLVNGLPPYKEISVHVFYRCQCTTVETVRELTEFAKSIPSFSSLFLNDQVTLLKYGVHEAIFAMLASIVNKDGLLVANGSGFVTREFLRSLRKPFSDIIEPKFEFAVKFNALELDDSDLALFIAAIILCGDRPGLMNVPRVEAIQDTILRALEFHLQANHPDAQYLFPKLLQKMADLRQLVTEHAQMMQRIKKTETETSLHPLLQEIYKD
Experimental: FIG. 2: Induction of corepressor peptide binding to GST-PPAR beta/delta ligand binding domain (LBD) in vitro in dependency of the concentration of the substances of this invention comparative compound (CC) 2, compound 1 (A), compound 2 (B), compound 3 (C), compound 4 (D) and compound 5 (E). The interaction of fluorescein-labeled SMRT-ID2 peptide with recombinant GST-PPAR beta/delta LBD bound to a terbium-labeled anti-GST antibody is determined by TR-FRET analysis. Shown is the ratio of fluorescence intensity at 520 nm (fluorescein emission, excited by terbium emission) and 495 nm (terbium emission). All data points represent average values of triplicates (+/−standard deviation).
B) The ligand-induced binding of the commercially available fluorescein-labeled corepressor peptide SMRT-ID2 ([…]) (Invitrogen, Darmstadt, Germany) to GST-PPAR beta/delta is for example measured by TR-FRET analysis using a terbium-labeled anti-GST antibody in a VICTOR3V Multilabel Counter (WALLAC 1420; PerkinElmer Life and Analytical Sciences, Rodgau, Germany). The measurement is performed in a buffer composed of 100 mM KC, 20 mM Tris pH 7.9, 0.01% Triton X100 and 1 μg/μL bovine serum albumin.

[2] = system: ANGPTL4 gene expression; experiment: ANGPTL4 gene expression (qPCR) in WPMY-1 myofibroblasts; type: cell-based, human; conditions: Homo sapiens, 6 h; WPMY-1 cells, six hours treatment; read-out: IC50 (mean inhibitory concentration), endogenous ANGPTL4 expression
Experimental: (§1) FIG. 5: Influence of the substances of this invention comparative compound (CC) 2, compound 1, compound 5, compound 2 and compound 3 on ANGPTL4 gene expression. • (A) Comparison of relative ANGPTL4 expression, (B) mean inhibitory concentration of substances of this invention. (A) Human myofibroblasts (WPMY-1) are treated for 24 hours with the substances of this invention (1 μM), then RNA is isolated, the cDNA synthesized and analyzed by qPCR, normalized to L27 gene expression. (B) Titration of the effect of substances of this invention on the endogenous ANGPTL4 expression in WPMY-1 cells (left) or peritoneal mouse macrophages (right) after cells have been treated for six hours with the substances of this invention compound 1 and compound 2, respectively; RNA isolation, cDNA synthesis and qPCR as described for (A). The relative expression is calculated in relation to DMSO-treated cells. All values are average values of triplicates (+1-standard deviation). Asterisks (***, **, *) indicate significant differences to DMSO-treated cells (***: p<0.001 after t-test; *: p <0.05).
The influence of substances of this invention on PPAR-beta/delta regulated genes like for example ANGPTL4 which codes for the angiopoietin-like protein ANGPTL4 is assessed in different cells with a confluence of 70% to 80% in a 6-well cell culture plate. For this purpose, cultivated human myofibroblasts (WPMY-1), peritoneal mouse macrophages or cells of the human breast cancer cell line MDA-MB-231 are treated for 24 hours with 1 μM of the substances of this invention. Cells of the breast cancer cell line are in addition stimulated for 6 hours with TGF-beta2 (2 ng/ml) which is commercially available. Subsequently, RNA is isolated from the cells by procedures known to the expert and analyzed by quantitative PCR (qPCR, real time qPCR, RT-qPCR) also known to those skilled in the art. […]

[3] = system: ANGPTL4 gene expression; experiment: ANGPTL4 expression (qPCR) in breast cancer cell line MDA-MB-231; type: cell-based, human; conditions: for TGF-beta2-induced ANGPTL4 expression: MDA-MB-231, 1 μM pre-treatment 24 hours, then TGF-beta2 2 ng/ml for 6 hours
Experimental: FIG. 6: Influence of the substances of this invention compound 1 and compound 5 on the induction of ANGPTL4 expression by TGF-beta2 in the breast cancer cell line MDA-MB-231. • The human breast cancer cell line MDA-MB-231 is pre-treated for 24 hours with 1 μM of the substances of this invention compound 1 or compound 5, respectively, and subsequently stimulated with TGF-beta2 (2 ng/ml) for 6 hours. The relative ANGPTL4 expression is determined by qPCR.
The influence of substances of this invention on PPAR-beta/delta regulated genes like for example ANGPTL4 which codes for the angiopoietin-like protein ANGPTL4 is assessed in different cells with a confluence of 70% to 80% in a 6-well cell culture plate. For this purpose, cultivated human myofibroblasts (WPMY-1), peritoneal mouse macrophages or cells of the human breast cancer cell line MDA-MB-231 are treated for 24 hours with 1 μM of the substances of this invention. Cells of the breast cancer cell line are in addition stimulated for 6 hours with TGF-beta2 (2 ng/ml) which is commercially available. Subsequently, RNA is isolated from the cells by procedures known to the expert and analyzed by quantitative PCR (qPCR, real time qPCR, RT-qPCR) also known to those skilled in the art. For this, cDNA is synthesized using 0.25 μg to 1 μg of RNA, oligo(dT)-primers and a commercially available cDNA synthesis kit. qPCR is then conducted in a Mx3000P RT-qPCR system (Stratagene, La Jolla, Calif., USA) according to the manufacturer's instructions with 40 cycles, an annealing temperature of 60° C., and for example human ANGPTL4 primers (fw: […]; rv: […]) and the ribosomal I27 (fw: […]; rv: […]) as normalizing gene known to the expert in this field. […] The respective IC50 value (mean inhibitory concentration) for substances of this invention compound 1 and compound 2 is depicted in FIG. 5 B and is maximal 20 nM in WPMY-1 cells and maximal 30 nM in peritoneal mouse macrophages, respectively.

[4] = system: ANGPTL4 gene expression; experiment: ANGPTL4 gene expression (qPCR) in peritoneal mouse macrophages; type: cell-based; conditions: Macrophage, 6 h, six hours treatment, read-out: IC50 (mean inhibitory concentration), endogenous ANGPTL4 expression
Experimental: as §1, with “All values are average values of triplicates (+1-standard deviation). Asterisks (***, **, *) indicate significant differences to DMSO-treated cells (***: p<0.001 after t-test; *: p <0.05).” left out
The influence of substances of this invention on PPAR-beta/delta regulated genes like for example ANGPTL4 which codes for the angiopoietin-like protein ANGPTL4 is assessed in different cells with a confluence of 70% to 80% in a 6-well cell culture plate. […] Subsequently, RNA is isolated from the cells by procedures known to the expert and analyzed by quantitative PCR (qPCR, real time qPCR, RT-qPCR) also known to those skilled in the art. […]

[5] = target: T1, GST-PPAR beta/delta LBD; experiment: Inhibition of compound 1-induced binding of corepressor peptide SMRT-ID2, TR-FRET; type: biochemical; conditions: 1 μM test substance, increasing concentrations of inverse agonist compound 1
Experimental: FIG. 3: Inhibition of agonist-induced co-activator peptide binding (A) and inverse agonist compound 1-induced corepressor peptide binding (B) by the substance of this invention compound 5. • The recruitment of the co-activator or corepressor peptide, respectively, is determined in a TR-FRET assay. As co-activator peptide, C33 is utilized, as corepressor peptide SMRT-ID2. The experiment is performed with a constant concentration of 1 μM of the substance of this invention compound 5 and increasing concentrations of the agonist L165041 (A) or the inverse agonist compound 1 (B), respectively.
C) The inhibition of the recruitment of co-activator peptide C33 known to the expert in this field mediated by PPAR beta/delta agonist L165,041 or the inhibition of the inverse agonist inventive compound 1-mediated binding of the corepressor peptide SMRT-ID2 to GST-PPAR beta/delta LBD by the substance of this invention compound 5 (1 μM) was also determined by TR-FRET measurements. Both is shown in FIGS. 3 A and B in dependency of the concentration of the agonist (A) and the inverse agonist (B), respectively.

pIC50 [4]	inhibition of compound 1-mediated interaction of LBD with corepressor peptide SMRT-ID2 [5]	Compound	induction of interaction of PPAR beta/delta LBD with corepressor peptide SMRT-ID2 [1]	pIC50 [2]	TGF-beta2-induced ANGPTL4 expression [3]	ANGPTL4 expression ([3]; breast cancer cell line MDA-MB-231-luc21H4)
≥ 7.52	–	CCCCCCNc1ccc(NS(=O)(=O)c2ccsc2C(=O)OC)c(OC)c1 [compound 1, methyl 3-(N-(4-(hexylamino)-2-methoxyphenyl)sulfamoyl)thiophene-2-carboxylate]	clearly demonstrate the interaction; also recorded: induce	≥ 7.70	loss of TGF-beta2-induced ANGPTL4 expression	drastic reduction
≥ 7.52	–	CCCCCCNc1ccc(NS(=O)(=O)c2ccsc2C(=O)OC)cc1OC [compound 2, methyl 3-(N-(4-(hexylamino)-3-methoxyphenyl)sulfamoyl)thiophene-2-carboxylate]	clearly demonstrate the interaction; also recorded: induce	≥ 7.70	–	–
–	prevents	COC(=O)c1sccc1S(=O)(=O)Nc1ccc(NC(C)(C)C)cc1OC [compound 5, methyl 3-(N-(4-(tert-butylamino)-2-methoxyphenyl)sulfamoyl)thiophene-2-carboxylate]	–	–	does not influence the induction of ANGPTL4 expression	–
